Key:
alfalfa weevil larvae = test: topical application to alfalfa weevil larvae; format: in vivo; details: 10 percent solution in acetone, all controls reached normal adulthood
From the text: A number of compounds were applied topically to alfalfa weevil larvae as a 10 percent solution in acetone. Acetone and nontreated controls were also run. Ten larvae were used in each test. The number of normal adults emerging from the larvae was observed. In each case, all the acetone and nontreated controls reached normal adulthood. The number of normal adults from treated larvae are reported below.

Tenebrio molitor pupae = test: topical application to Tenebrio molitor pupae, maturation inhibition; format: in vivo
Procedure, shortened: (§1)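 Compounds applied topically, 1 μL acetone solution at 10%, 1% or 0.5%, to ten specimens per insect per concentration, alongside acetone and untreated controls; scored after about 8–10 days. Juvenile/adult characteristics rated 0–3 (Tenebrio 0–4), ≥2 meaning unable to reproduce; unreported specimens died during metamorphosis.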

Mexican bean beetle = test: topical application to Mexican bean beetle, fourth larval stage, maturation inhibition; format: in vivo; details: rating scale 0-3
Procedure, shortened: as §1

milkweed bug = test: topical application to milkweed bug, fourth nymphal stage, maturation inhibition; format: in vivo; details: rating scale 0-3
Procedure, shortened: as §1

wax moth = test: topical application to wax moth, fifth larval stage, maturation inhibition; format: in vivo
Procedure, shortened: as §1

housefly larvae = test: topical application to housefly larvae; format: in vivo, Musca domestica; details: scale 0-2
Description: The compounds were applied in acetone solution at concentrations of 10 percent, 1 percent and 0.5 percent. One microliter of the acetone solution was applied to each test specimen. Ten test specimens were employed for each insect at each concentration and compared to ten acetone controls and ten zero controls. Approximately eight to ten days were required before results could be ascertained.
A number of compounds were tested against housefly larvae by topical application in an acetone solution using the method described above for the primary test against Tenebrio, milkweed bug, wax moth, and Mexican bean bettel. The results with the first compound are reported on a scale of 0 to 3 with 0 indicating a normal adult, 1 indicating an adult with deformed wings, 2 indicating a partially emerged adult, and 3 indicating no evidence of emergence. The results for the other compounds are reported onn a scale of 0 to 2 with 0 indicating a normal adult, 1 indicating a partially emerged adult and 2 indicating no evidence of emergence.

aphid nymphs = test: application to aphid nymphs in acetone; format: in vivo, Aphis gossypi; details: 3 days
Description: In another test, female aphids were placed on young squash plants and allowed to produce young for 24 hours. After 24 hours, all adult aphids were removed from the plants and the young were maintained on the plants for an additional 48-hour period. This gave an aphid nymph population having an age of 48 to 72 hours. To each nymph was applied […]. of a 10 percent, 1 percent, or 0.5 percent solution of 2.6- dimethyl-9-(3,4-methylenedioxyphenyl)-2,6-nonadiene or 7,8-epoxy-4-ethyl-8-methyl-1-(3,4-methylenedioxyphenyl)-3-decene in acetone and the aphid nymphs were transferred to new squash plants and observed for possible effects. Ten nymphs were treated with each concentration of each compound and 10 were treated with acetone alone while 10 were not treated to serve as controls. […] There was only one dead nymph treated with acetone alone and one dead nymph in the nontreated controls.

[1] = system: Aedes aegypti mosquito larvae; test: mosquito larvae in aqueous solutions, adult emergence; format: in vivo; details: for number of adults, Jar 1 Dead / number of adults, Jar 1 Living / number of adults, Jar 2 Dead / number of adults, Jar 2 Living: 13 days
Description: Two compounds, 7,8-epoxy-4-ethyl-8-methyl-1-(3,4-methylenedioxyphenyl)-3-decene and 2,6-diemthyl-9-(3,4-methylenedioxyphenyl)-2,6-nonadiene, were tested against Aedes aegypti mosquito larvae in aqueous solutions at concentrations of 10, 5, 2.5. 1.25 and 0.625 ppm. each. Ninety milliliters of each solution were placed in a pint jar and 30 five-day-old mosquito larvae were added to each jar. Two tests were run at each concentration and control tests employing only solvent with no compound were also run. Food was added to each jar, the jars were covered with cloths, and maintained at 29°C. until adults emerged in the control jars. The number of adults in the test jars was determined.

[2] = system: Housefly (Musca domestica); test: housefly rearing diet test, percent adult emergence; format: in vivo
Description: Test compounds were mixed with the rearing diet of houseflys at various levels. The prepared diet was then placed in an 8 oz. drinking cup. Three cups were prepared for each treatment level and three control cups. Housefly eggs (Musca domestica) were placed in each cup and they were maintained at 28°C. for 1 week. Fifty pupae were then removed from each cup and placed in a petri dish. After the control pupae had emerged into adults, the percent emergence in each dish was recorded. The test compounds used were 7,8-epoxy-4-ethyl-8-methyl-1-(3,4-methylenedioxyphenyl)-3-decene, 4,8-dimetyl-1-(3,4-methylenedioxyphenyl)-2,6-nonadiene and 2,6-dichloro-2,6-dimethyl-9-(3,4-methylenedioxyphenyl)nonane.

[3] = Wigglesworth, J. Ins. Physiol. 9, 105 (1963); cited from earlier work
[4] = 10% in acetone, 1 microliter topical, rating scale 0 (no effect) to 3 (maximum)

Question: For `COc1cc(CCC=C(C)CCC=C(C)C)cc(OC)c1` [9-(3,5-dimethoxyphenyl)-2,6-dimethyl-2,6-nonadiene], which “Number of Adults (normal adults from ten treated larvae)” value (alfalfa weevil larvae) is on record?
Answer: Its value is 8.

Question: What does the source list for `CC(C)=CCCC(C)=CCCc1ccc2c(c1)OCCO2` [9-(3,4-ethylenedioxyphenyl)-2,6-dimethyl-2,6-nonadiene]?
Answer: number of specimens in rating 4 (Tenebrio molitor pupae; 0.5%, rating scale 0-4): 10 specimens; number of specimens in rating 3 (Tenebrio molitor pupae; 1%, rating scale 0-4): 2 specimens; number of specimens in rating 4 (Tenebrio molitor pupae; 1%, rating scale 0-4): 8 specimens; number of specimens in rating 4 (Tenebrio molitor pupae; 10%, rating scale 0-4): 10 specimens; Number of Adults (normal adults from ten treated larvae) (alfalfa weevil larvae): 7

Question: With `COc1cccc(CCC=C(C)CCC=C(C)C)c1` [2,6-DIMETHYL-9-(3-METHOXYPHENYL)-2,6-NONADIENE] as the compound, how does the “number of specimens in rating 3” value (Tenebrio molitor pupae; 0.5%, rating scale 0-4) read?
Answer: The value was 1 specimens.

Question: What about the “number of specimens in rating 4” value (Tenebrio molitor pupae; 0.5%, rating scale 0-4) of the same compound?
Answer: The value was 9 specimens.

Question: And the “number of specimens in rating 4” value (Tenebrio molitor pupae; 1%, rating scale 0-4)?
Answer: The value was 10 specimens.

Question: What about the “number of specimens in rating 4” value (Tenebrio molitor pupae; 10%, rating scale 0-4) of the same compound?
Answer: The value was 10 specimens.

Question: What about the “Number of Adults (normal adults from ten treated larvae)” value (alfalfa weevil larvae) of the same compound?
Answer: Its value is 6.

Question: What about the “number of specimens in rating 0” value (Mexican bean beetle; 0.5%) of the same compound?
Answer: The value was 10 specimens.

Question: What about the “number of specimens in rating 0” value (Mexican bean beetle; 1%) of the same compound?
Answer: The value was 10 specimens.

Question: What about the “number of specimens in rating 3” value (Mexican bean beetle; 10%) of the same compound?
Answer: The value was 3 specimens.

Question: What about the “number of specimens in rating 0” value (milkweed bug; 0.5%) of the same compound?
Answer: Its value is 3 specimens.

Question: What about the “number of specimens in rating 1” value (milkweed bug; 0.5%) of the same compound?
Answer: The value was 3 specimens.

Question: And the “number of specimens in rating 2” value (milkweed bug; 0.5%)?
Answer: Its value is 4 specimens.

Question: What about the “number of specimens in rating 1” value (milkweed bug; 1%) of the same compound?
Answer: Its value is 1 specimens.

Question: And the “number of specimens in rating 2” value (milkweed bug; 1%)?
Answer: The value was 5 specimens.

Question: What about the “number of specimens in rating 3” value (milkweed bug; 1%) of the same compound?
Answer: The value was 3 specimens.

Question: What about the “number of specimens in rating 3” value (milkweed bug; 10%) of the same compound?
Answer: Its value is 9 specimens.

Question: And the “number of specimens in rating 0” value (wax moth; 0.5%, rating scale 0-3)?
Answer: The value was 10 specimens.

Question: What about the “number of specimens in rating 0” value (wax moth; 1%, rating scale 0-3) of the same compound?
Answer: Its value is 9 specimens.

Question: And the “number of specimens in rating 0” value (wax moth; [4])?
Answer: The value was 9 specimens.

Question: And the “number of specimens in rating 2” value (wax moth; 10%, rating scale 0-3)?
Answer: The value was 1 specimens.

Question: With `COc1ccc(CCC=C(C)CCC=C(C)C)cc1OC` [2,6-DIMETHYL-9-(3,4-DIMETHOXYPHENYL)-2,6-NONADIENE] as the compound, how does the “number of specimens in rating 0” value (Tenebrio molitor pupae; 0.5%, rating scale 0-4) read?
Answer: The value was 10 specimens.

Question: And the “number of specimens in rating 0” value (Tenebrio molitor pupae; 1%, rating scale 0-4)?
Answer: The value was 4 specimens.

Question: And the “number of specimens in rating 1” value (Tenebrio molitor pupae; 1%, rating scale 0-4)?
Answer: Its value is 5 specimens.

Question: And the “number of specimens in rating 0” value (Tenebrio molitor pupae; 10% in acetone, 1 microliter topical, rating scale 0 (no effect) to 4 (maximum))?
Answer: Its value is 2 specimens.

Question: What about the “number of specimens in rating 1” value (Tenebrio molitor pupae; 10%, rating scale 0-4) of the same compound?
Answer: The value was 5 specimens.

Question: And the “number of specimens in rating 2” value (Tenebrio molitor pupae; 10%, rating scale 0-4)?
Answer: The value was 3 specimens.

Question: What about the “Number of Adults (normal adults from ten treated larvae)” value (alfalfa weevil larvae) of the same compound?
Answer: The value was 5.

Question: What about the “number of specimens in rating 0” value (Mexican bean beetle; 0.5%) of the same compound?
Answer: The value was 10 specimens.

Question: What about the “number of specimens in rating 0” value (Mexican bean beetle; 1%) of the same compound?
Answer: Its value is 10 specimens.

Question: What about the “number of specimens in rating 1” value (Mexican bean beetle; 10%) of the same compound?
Answer: The value was 3 specimens.

Question: What about the “number of specimens in rating 0” value (milkweed bug; 0.5%) of the same compound?
Answer: The value was 8 specimens.

Question: And the “number of specimens in rating 0” value (milkweed bug; 1%)?
Answer: Its value is 8 specimens.

Question: And the “number of specimens in rating 2” value (milkweed bug; 10%)?
Answer: The value was 3 specimens.

Question: What about the “number of specimens in rating 3” value (milkweed bug; 10%) of the same compound?
Answer: Its value is 2 specimens.

Question: What about the “number of specimens in rating 0” value (wax moth; 0.5%, rating scale 0-3) of the same compound?
Answer: Its value is 10 specimens.

Question: And the “number of specimens in rating 0” value (wax moth; 1%, rating scale 0-3)?
Answer: Its value is 10 specimens.

Question: What about the “number of specimens in rating 0” value (wax moth; [4]) of the same compound?
Answer: Its value is 10 specimens.

Question: What does the source list for `CCC(=CCCc1ccc2c(c1)OCO2)CCC1OC1(C)CC` (stereo not drawn) [7,8-epoxy-4-ethyl-8-methyl-1-(3,4-methylenedioxyphenyl)-3-decene]?
Answer: number in rating 0 (normal adult) (housefly larvae; 0.5%): 6; number in rating 2 (no evidence of emergence) (housefly larvae; 0.5%): 4; number in rating 0 (normal adult) (housefly larvae; 1%): 5; number in rating 1 (partially emerged adult) (housefly larvae; 1%): 1; number in rating 2 (no evidence of emergence) (housefly larvae; 1%): 4; number in rating 2 (no evidence of emergence) (housefly larvae; 10%): 10; dead nymphs (aphid nymphs; 0.5 percent): nine of the ten; dead nymphs (aphid nymphs; 1 percent): all of the nymphs; dead nymphs (aphid nymphs; 10 percent): all of the nymphs; number of specimens in rating 4 (Tenebrio molitor pupae; 0.5%, rating scale 0-4): 10 specimens; number of specimens in rating 4 (Tenebrio molitor pupae; 1%, rating scale 0-4): 10 specimens; number of specimens in rating 3 (Mexican bean beetle; 0.5%): 10 specimens; number of specimens in rating 3 (Mexican bean beetle; 1%): 10 specimens; number of adults, Jar 1 Dead ([1]; 0.625 ppm): 0; number of adults, Jar 1 Living ([1]; 0.625 ppm): 0; number of adults, Jar 2 Dead ([1]; 0.625 ppm): 0; number of adults, Jar 2 Living ([1]; 0.625 ppm): 0; number of adults, Jar 1 Dead ([1]; 1.25 ppm): 0; number of adults, Jar 1 Living ([1]; 1.25 ppm): 0; number of adults, Jar 2 Dead ([1]; 1.25 ppm): 0; number of adults, Jar 2 Living ([1]; 1.25 ppm): 0; number of adults, Jar 1 Dead ([1]; 2.5 ppm): 0; number of adults, Jar 1 Living ([1]; 2.5 ppm): 0; number of adults, Jar 2 Dead ([1]; 2.5 ppm): 0; number of adults, Jar 2 Living ([1]; 2.5 ppm): 0; number of adults, Jar 1 Dead ([1]; 5 ppm): 0; number of adults, Jar 1 Living ([1]; 5 ppm): 0; number of adults, Jar 2 Dead ([1]; 5 ppm): 0; number of adults, Jar 2 Living ([1]; 5 ppm): 0; number of adults, Jar 1 Dead ([1]; 10 ppm): 0; number of adults, Jar 1 Living ([1]; 10 ppm): 0; number of adults, Jar 2 Dead ([1]; 10 ppm): 0; number of adults, Jar 2 Living ([1]; 10 ppm): 0; control ([1]; at concentrations as low as 0.625 ppm): 100%; live adults in the jars ([1]; nonadiene at 10, 5, and 2.5 ppm, decene at any concentration): never any live adults; number of specimens in rating 3 (milkweed bug; 0.5%): 9 specimens; number of specimens in rating 3 (milkweed bug; 1%): 8 specimens; percent adult emergence, Cup 1 ([2]; 0.1 ppm in diet): 100%; percent adult emergence, Cup 2 ([2]; 0.1 ppm in diet): 100%; percent adult emergence, Cup 3 ([2]; 0.1 ppm in diet): 100%; percent adult emergence, Cup 1 ([2]; 1 ppm in diet): 100%; percent adult emergence, Cup 2 ([2]; 1 ppm in diet): 100%; percent adult emergence, Cup 3 ([2]; 1 ppm in diet): 100%; percent adult emergence, Cup 1 ([2]; 10 ppm in diet): 100%; percent adult emergence, Cup 2 ([2]; 10 ppm in diet): 100%; percent adult emergence, Cup 3 ([2]; 10 ppm in diet): 100%; control ([2]; 100 ppm): ≥ 80%; percent adult emergence, Cup 1 ([2]; 100 ppm in diet): 10%; percent adult emergence, Cup 2 ([2]; 100 ppm in diet): 20%; percent adult emergence, Cup 3 ([2]; 100 ppm in diet): 10%; number of specimens in rating 0 (wax moth; 0.5%, rating scale 0-3): 1 specimens; number of specimens in rating 3 (wax moth; 0.5%, rating scale 0-3): 9 specimens; number of specimens in rating 3 (wax moth; 1%, rating scale 0-3): 10 specimens

Question: For “9-(2-furyl)-2,6-dimethyl-2,6-nonadiene [dendrolasin]”, which juvenile hormone activity [3] is on record?
Answer: Its juvenile hormone activity is “some juvenile hormone activity”.
